From PubChem BioAssay AID256 (DTP/NCI, 2004)
“And” between values parts separate entries of the source, which are not always exact repeats. Equal values may be shown once. Toxic doses and inconclusive results are not listed. The calls were made as follows: active = survival T/C of 150% or more; inactive = T/C below 125% in these data.

Tested on: CD2F1 mice, L1210 leukemia ip, survival T/C
Assay: NCI In Vivo Anticancer Drug Screen. Data for tumor model L1210 Leukemia (intraperitoneal) in CD2F1 (CDF1) mice
Settings: higher = longer survival
Procedure, shortened: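 Mice carrying a transplanted tumor received test compound or vehicle alone. The value is the measurement in the treated group divided by that in the vehicle-treated control group.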

[1] = endpoint: mean survival time, dose: 75.0 mg/kg/injection, schedule: Q04DX003 (ip), vehicle: saline
[2] = endpoint: mean survival time, dose: 150.0 mg/kg/injection, schedule: Q04DX003 (ip), vehicle: saline
[3] = endpoint: mean survival time, dose: 300.0 mg/kg/injection, schedule: Q04DX003 (ip), vehicle: saline
[4] = endpoint: mean survival time, dose: 100.0 mg/kg/injection, schedule: Q04DX002 (ip), vehicle: saline with Tween-80
[5] = endpoint: mean survival time, dose: 100.0 mg/kg/injection, schedule: Q04DX003 (ip), vehicle: saline with Tween-80
[6] = endpoint: mean survival time, dose: 200.0 mg/kg/injection, schedule: Q04DX003 (ip), vehicle: saline with Tween-80
[7] = endpoint: mean survival time, dose: 400.0 mg/kg/injection, schedule: Q04DX003 (ip), vehicle: saline with Tween-80
[8] = endpoint: mean survival time, dose: 200.0 mg/kg/injection, schedule: Q04DX002 (ip), vehicle: saline with Tween-80
[9] = endpoint: mean survival time, dose: 400.0 mg/kg/injection, schedule: Q04DX002 (ip), vehicle: saline with Tween-80
[10] = endpoint: mean survival time, dose: 50.0 mg/kg/injection, schedule: Q01DX009 (ip), vehicle: saline
[11] = endpoint: mean survival time, dose: 100.0 mg/kg/injection, schedule: Q01DX009 (ip), vehicle: saline
[12] = endpoint: mean survival time, dose: 200.0 mg/kg/injection, schedule: Q01DX009 (ip), vehicle: saline
[13] = endpoint: mean survival time, dose: 50.0 mg/kg/injection, schedule: Q01DX009 (ip), vehicle: saline with Tween-80
[14] = endpoint: mean survival time, dose: 100.0 mg/kg/injection, schedule: Q01DX009 (ip), vehicle: saline with Tween-80
[15] = endpoint: mean survival time, dose: 200.0 mg/kg/injection, schedule: Q01DX009 (ip), vehicle: saline with Tween-80

Measured: T/C

c1cc[n+]2c(c1)-c1cccc[n+]1CCCC2
inactive: endpoint: mean survival time, dose: 75.0 mg/kg/injection, schedule: Q01DX009 (ip), vehicle: saline 108 % of control | [1] 98 % of control | endpoint: mean survival time, dose: 150.0 mg/kg/injection, schedule: Q01DX009 (ip), vehicle: saline 100 % of control | [2] 93 % of control | [3] 96 % of control

CCCCN(CCCC)CC(O)c1ccccc1 (stereo not given)
inactive: [4] 88 % of control

CC(C)(CO)CN1CCCCC1
inactive: [5] 101 % of control | [6] 93 % of control

COc1cc([NH-])c([NH-])cc1OC.[Cl][Pt+2][Cl]
inactive: endpoint: mean survival time, dose: 1.25 mg/kg/injection, schedule: Q01DX009 (ip), vehicle: saline with Tween-80 103 % of control | endpoint: mean survival time, dose: 2.5 mg/kg/injection, schedule: Q01DX009 (ip), vehicle: saline with Tween-80 107 % of control | endpoint: mean survival time, dose: 5.0 mg/kg/injection, schedule: Q01DX009 (ip), vehicle: saline with Tween-80 105 % of control | endpoint: mean survival time, dose: 10.0 mg/kg/injection, schedule: Q01DX009 (ip), vehicle: saline with Tween-80 106 % of control | endpoint: mean survival time, dose: 20.0 mg/kg/injection, schedule: Q01DX009 (ip), vehicle: saline with Tween-80 104 % of control and 111 % of control | endpoint: mean survival time, dose: 40.0 mg/kg/injection, schedule: Q01DX009 (ip), vehicle: saline with Tween-80 107 % of control | endpoint: mean survival time, dose: 80.0 mg/kg/injection, schedule: Q01DX009 (ip), vehicle: saline with Tween-80 107 % of control | endpoint: mean survival time, dose: 160.0 mg/kg/injection, schedule: Q01DX009 (ip), vehicle: saline with Tween-80 92 % of control

O=C(O)CC(=O)O.[NH-]CC(O)C[NH-].[Pt+2]
inactive: endpoint: median survival time, dose: 20.0 mg/kg/injection, schedule: Q04DX003 (ip), vehicle: water 96 % of control | endpoint: median survival time, dose: 40.0 mg/kg/injection, schedule: Q04DX003 (ip), vehicle: water 110 % of control

O=C1C=CC(=O)N1c1ccc(Cl)cc1[N+](=O)[O-]
inactive: endpoint: mean survival time, dose: 6.25 mg/kg/injection, schedule: Q04DX003 (ip), vehicle: saline with Tween-80 98 % of control | endpoint: mean survival time, dose: 12.5 mg/kg/injection, schedule: Q01DX009 (ip), vehicle: saline with Tween-80 97 % of control | endpoint: mean survival time, dose: 12.5 mg/kg/injection, schedule: Q04DX003 (ip), vehicle: saline with Tween-80 101 % of control | endpoint: mean survival time, dose: 25.0 mg/kg/injection, schedule: Q01DX009 (ip), vehicle: saline with Tween-80 96 % of control | endpoint: mean survival time, dose: 25.0 mg/kg/injection, schedule: Q04DX003 (ip), vehicle: saline with Tween-80 98 % of control

CNC(=O)N(C)CC(O)C(O)C(O)C(O)CO (stereo not given)
inactive: [5] 97 % of control | [6] 104 % of control | [7] 106 % of control

C/C(=N\NS(=O)(=O)c1ccc(C)cc1)c1ccccc1
inactive: [4] 108 % of control | [8] 96 % of control | [9] 103 % of control

CC(=O)O[C@@H]1[C@@H](O)C2=C3[C@]4(C)[C@@H]1C(C)(C)C(=O)C[C@@H]4[C@]3(O)[C@H](OC(C)=O)[C@@]1(C[C@@H]1C)C2=O
inactive: endpoint: mean survival time, dose: 3.12 mg/kg/injection, schedule: Q01DX009 (ip), vehicle: distilled water + Tween-80 102 % of control | endpoint: mean survival time, dose: 3.12 mg/kg/injection, schedule: Q01DX009 (ip), vehicle: saline 96 % of control | endpoint: mean survival time, dose: 6.25 mg/kg/injection, schedule: Q01DX009 (ip), vehicle: distilled water + Tween-80 105 % of control | endpoint: mean survival time, dose: 6.25 mg/kg/injection, schedule: Q01DX009 (ip), vehicle: saline 102 % of control | endpoint: mean survival time, dose: 12.5 mg/kg/injection, schedule: Q01DX009 (ip), vehicle: distilled water + Tween-80 100 % of control | endpoint: mean survival time, dose: 12.5 mg/kg/injection, schedule: Q01DX009 (ip), vehicle: saline 104 % of control | endpoint: mean survival time, dose: 25.0 mg/kg/injection, schedule: Q01DX009 (ip), vehicle: distilled water + Tween-80 100 % of control | endpoint: mean survival time, dose: 25.0 mg/kg/injection, schedule: Q01DX009 (ip), vehicle: saline 104 % of control | endpoint: mean survival time, dose: 50.0 mg/kg/injection, schedule: Q01DX009 (ip), vehicle: distilled water + Tween-80 103 % of control | [10] 108 % of control | endpoint: mean survival time, dose: 100.0 mg/kg/injection, schedule: Q01DX009 (ip), vehicle: distilled water + Tween-80 96 % of control | [11] 111 % of control

CCOC(=O)NC(=O)/C=C/N1CCCC1
inactive: [10] 102 % of control | [11] 97 % of control | [12] 94 % of control

CC(C)(C)C1C=Nn2c(=O)n(-c3ccccc3)c(=O)n21 (stereo not given)
inactive: endpoint: mean survival time, dose: 12.5 mg/kg/injection, schedule: Q01DX009 (ip), vehicle: other 100 % of control | endpoint: mean survival time, dose: 25.0 mg/kg/injection, schedule: Q01DX009 (ip), vehicle: other 94 % of control | endpoint: mean survival time, dose: 50.0 mg/kg/injection, schedule: Q01DX009 (ip), vehicle: other 101 % of control | endpoint: mean survival time, dose: 100.0 mg/kg/injection, schedule: Q01DX009 (ip), vehicle: other 100 % of control | endpoint: mean survival time, dose: 200.0 mg/kg/injection, schedule: Q01DX009 (ip), vehicle: other 99 % of control

CC(C)(CO)CCCCCCC(C)(C)CO
inactive: [13] 98 % of control | [14] 106 % of control | [15] 106 % of control

N/N=C(\NN)c1ccccc1
inactive: [5] 92 % of control | [6] 87 % of control | [7] 92 % of control

CC(C)(CCCO)c1cccc(Cl)c1
inactive: [13] 104 % of control | [14] 101 % of control | [15] 104 % of control

O=S1(=O)CC(Br)C(Br)C1 (stereo not given)
inactive: [13] 88 % of control | [14] 100 % of control | [5] 106 % of control | [15] 110 % of control | [6] 107 % of control | [7] 100 % of control

O=[N+]([O-])c1ccc(N/N=C(\CO)c2ccccc2)c([N+](=O)[O-])c1
inactive: endpoint: mean survival time, dose: 100.0 mg/kg/injection, schedule: Q04DX003 (ip), vehicle: saline 109 % of control | endpoint: mean survival time, dose: 200.0 mg/kg/injection, schedule: Q04DX003 (ip), vehicle: saline 97 % of control | endpoint: mean survival time, dose: 400.0 mg/kg/injection, schedule: Q04DX003 (ip), vehicle: saline 108 % of control

c1ccc([P+](c2ccccc2)(c2ccccc2)c2ccccc2)cc1
inactive: endpoint: mean survival time, dose: 0.63 mg/kg/injection, schedule: Q01DX009 (ip), vehicle: saline 108 % of control | endpoint: mean survival time, dose: 1.25 mg/kg/injection, schedule: Q01DX009 (ip), vehicle: saline 111 % of control | endpoint: mean survival time, dose: 2.5 mg/kg/injection, schedule: Q01DX009 (ip), vehicle: saline 117 % of control | endpoint: mean survival time, dose: 5.0 mg/kg/injection, schedule: Q01DX009 (ip), vehicle: saline 122 % of control

CCCCCCCOc1ccc(N=[N+]([O-])c2ccc(OCCCCCCC)cc2)cc1
inactive: [5] 95 % of control | [6] 91 % of control | [7] 89 % of control

COC(=O)C1C2CCC(C2)C1C(=O)O (stereo not given)
inactive: [11] 96 % of control | [12] 96 % of control | endpoint: mean survival time, dose: 400.0 mg/kg/injection, schedule: Q01DX009 (ip), vehicle: saline 94 % of control

O=[N+]([O-])c1ccc(C2=CSc3ccccc3N2)cc1
inactive: [4] 104 % of control | [8] 108 % of control | [9] 104 % of control

Cc1nc(N)[nH]c(=O)c1CCS
inactive: endpoint: mean survival time, dose: 100.0 mg/kg/injection, schedule: Q01DX001 (ip), vehicle: saline 97 % of control | endpoint: mean survival time, dose: 200.0 mg/kg/injection, schedule: Q01DX001 (ip), vehicle: saline 100 % of control

CCOC(=O)c1cccc2ncccc12
inactive: [1] 101 % of control | [2] 93 % of control | [3] 97 % of control

CCCc1ccc(Nc2c3ccccc3nc3ccccc23)cc1
inactive: [4] 107 % of control | [8] 114 % of control | [9] 105 % of control

C=C1CC(C)(Cn2cnc3c(N)ncnc32)OC1=O (stereo not given)
inactive: endpoint: median survival time, dose: 6.13 mg/kg/injection, schedule: Q01DX005 (ip), vehicle: water 104 % of control | endpoint: median survival time, dose: 12.25 mg/kg/injection, schedule: Q01DX005 (ip), vehicle: water 101 % of control | endpoint: median survival time, dose: 24.5 mg/kg/injection, schedule: Q01DX005 (ip), vehicle: water 103 % of control | endpoint: median survival time, dose: 49.0 mg/kg/injection, schedule: Q01DX005 (ip), vehicle: water 101 % of control

Cc1[nH]nc(C(N)=O)c1N=NN1CCOCC1
inactive: endpoint: mean survival time, dose: 75.0 mg/kg/injection, schedule: Q01DX001 (ip), vehicle: other 101 % of control | endpoint: mean survival time, dose: 150.0 mg/kg/injection, schedule: Q01DX001 (ip), vehicle: other 106 % of control | endpoint: mean survival time, dose: 300.0 mg/kg/injection, schedule: Q01DX001 (ip), vehicle: other 109 % of control
